Tests used:
[1] = target: PI3Kα (Homo sapiens, UniProt P42336, H1047R); experiment: ADP-Glo IC50 assay; assay type: biochemical; conditions: class symbols; key not given
[2] = test system: MCF10A; experiment: MCF10A IC50 assay; assay type: cell-based; conditions: Homo sapiens, MCF-10A; class symbols; key not given
Outline: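 MCF10A cells overexpressing hotspot PIK3CA mutations were seeded at 5,000 per well in supplemented DMEM/F12 and adhered overnight (37 °C, 5% CO₂). Compounds were added acoustically as 12-dose 1:3 series, in duplicate, for 2 hours. Cells were lysed 60 min, then incubated 4 hours at room temperature with CisBio phospho-AKT (Ser473) HTRF antibodies and read on an Envision 2105. IC₅₀ for AKT phosphorylation came from Genedata software and was reported as binned categories.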

Sequence of PI3Kα (P42336 whole entry H1047R): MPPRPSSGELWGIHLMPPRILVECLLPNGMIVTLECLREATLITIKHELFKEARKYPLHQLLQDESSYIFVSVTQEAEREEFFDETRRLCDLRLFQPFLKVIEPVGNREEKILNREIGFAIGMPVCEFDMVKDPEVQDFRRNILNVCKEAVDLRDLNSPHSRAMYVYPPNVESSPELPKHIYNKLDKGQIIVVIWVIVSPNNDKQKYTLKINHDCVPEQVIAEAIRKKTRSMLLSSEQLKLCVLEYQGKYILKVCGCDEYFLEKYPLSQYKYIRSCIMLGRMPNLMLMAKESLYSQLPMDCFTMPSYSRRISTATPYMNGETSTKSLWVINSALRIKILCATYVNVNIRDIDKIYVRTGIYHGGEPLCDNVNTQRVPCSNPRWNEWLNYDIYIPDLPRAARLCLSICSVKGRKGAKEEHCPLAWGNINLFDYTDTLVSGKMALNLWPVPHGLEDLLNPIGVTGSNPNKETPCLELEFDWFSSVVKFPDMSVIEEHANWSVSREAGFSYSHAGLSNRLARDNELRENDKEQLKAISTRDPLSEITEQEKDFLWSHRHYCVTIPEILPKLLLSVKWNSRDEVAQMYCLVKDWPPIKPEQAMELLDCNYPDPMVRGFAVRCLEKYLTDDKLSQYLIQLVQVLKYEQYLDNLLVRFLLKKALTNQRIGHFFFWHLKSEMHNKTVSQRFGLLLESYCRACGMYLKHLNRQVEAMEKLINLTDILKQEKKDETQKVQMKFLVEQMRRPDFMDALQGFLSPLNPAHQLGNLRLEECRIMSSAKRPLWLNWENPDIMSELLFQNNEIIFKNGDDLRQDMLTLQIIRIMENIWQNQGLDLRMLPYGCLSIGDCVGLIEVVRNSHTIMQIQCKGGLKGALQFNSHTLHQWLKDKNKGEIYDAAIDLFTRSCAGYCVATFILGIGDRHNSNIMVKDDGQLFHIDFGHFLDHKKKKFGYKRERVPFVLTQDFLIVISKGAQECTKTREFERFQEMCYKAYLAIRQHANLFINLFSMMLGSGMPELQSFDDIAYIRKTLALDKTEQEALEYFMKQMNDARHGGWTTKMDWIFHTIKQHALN
Sequence of PI3Kα (P27986 whole entry partner): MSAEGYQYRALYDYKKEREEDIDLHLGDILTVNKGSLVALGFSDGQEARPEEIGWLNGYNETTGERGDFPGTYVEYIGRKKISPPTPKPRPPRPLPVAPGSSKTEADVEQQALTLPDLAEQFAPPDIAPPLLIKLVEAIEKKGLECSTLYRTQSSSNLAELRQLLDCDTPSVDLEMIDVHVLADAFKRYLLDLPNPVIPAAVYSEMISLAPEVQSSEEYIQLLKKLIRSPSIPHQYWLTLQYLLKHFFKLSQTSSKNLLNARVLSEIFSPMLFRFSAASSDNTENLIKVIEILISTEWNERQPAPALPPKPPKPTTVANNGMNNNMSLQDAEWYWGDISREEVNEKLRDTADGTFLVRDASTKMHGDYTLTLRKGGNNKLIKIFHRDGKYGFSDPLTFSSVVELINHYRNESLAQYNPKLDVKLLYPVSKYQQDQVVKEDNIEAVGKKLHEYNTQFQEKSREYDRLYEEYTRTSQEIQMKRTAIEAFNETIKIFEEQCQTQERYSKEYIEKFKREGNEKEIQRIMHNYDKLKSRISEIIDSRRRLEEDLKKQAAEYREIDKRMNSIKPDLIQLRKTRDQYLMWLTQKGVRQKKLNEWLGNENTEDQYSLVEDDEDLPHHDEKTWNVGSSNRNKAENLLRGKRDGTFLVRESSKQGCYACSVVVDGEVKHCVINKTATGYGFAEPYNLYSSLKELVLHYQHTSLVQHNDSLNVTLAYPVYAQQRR

IC50 [1]	SMILES	IC50 [2]
100 to 500 nM	Cc1ccccc1Nc1ncc(C(=O)NCCCCCCCCCC(=O)N[C@H](C(=O)N2C[C@H](O)C[C@H]2C(=O)NCc2ccc(-c3scnc3C)cc2)C(C)(C)C)cc1NC(=O)c1csc2ccccc12 [Example I-10]	10000 to 36000 nM
< 100 nM	Cc1ccccc1Nc1ncc(C(=O)NCCCCCCCCCC(N)=O)cc1NC(=O)c1csc2ccccc12 [Example I-24]	1000 to 5000 nM
100 to 500 nM	Cc1ccccc1Nc1ncc(C(=O)NCCCCCCCCCNc2cccc3c2C(=O)N(C2CCC(=O)NC2=O)C3=O)cc1NC(=O)c1csc2ccccc12 (stereo not drawn) [Example I-31]	10000 to 36000 nM
< 100 nM	Cc1ccccc1Nc1ncc(C(=O)NCCCCNc2ccc3c(c2)C(=O)N(C2CCC(=O)NC2=O)C3=O)cc1NC(=O)c1csc2ccccc12 (stereo not drawn) [Example I-54]	10000 to 36000 nM
100 to 500 nM	Cc1ccccc1Nc1ncc(C(=O)NCCCCCCCC(=O)NCc2ccc3c(c2)CN(C2CCC(=O)NC2=O)C3=O)cc1NC(=O)c1csc2ccccc12 (stereo not drawn) [Example I-6]	10000 to 36000 nM
< 100 nM	O=C1CCC(N2Cc3cc(C(=O)NCCCCCCCCCNC(=O)c4cc(NC(=O)c5cc(F)cc(C(F)(F)F)c5)c5c(c4)C(=O)N[C@H]5c4cc(F)ccc4Cl)ccc3C2=O)C(=O)N1 (stereo partly drawn) [Example I-67]	10000 to 36000 nM
100 to 500 nM	Cc1ccccc1Nc1ncc(C(=O)NCCCCCC(=O)NCc2ccc3c(c2)CN(C2CCC(=O)NC2=O)C3=O)cc1NC(=O)c1csc2ccccc12 (stereo not drawn) [Example I-9]	10000 to 36000 nM
< 100 nM	Cc1ccccc1Nc1ncc(C(=O)NCCCCCNc2ccc3c(c2)C(=O)N(C2CCC(=O)NC2=O)C3=O)cc1NC(=O)c1csc2ccccc12 (stereo not drawn) [Example I-17]	5000 to 10000 nM
< 100 nM	Cc1ccccc1Nc1ncc(C(=O)NCCCCCCCCCC(=O)O)cc1NC(=O)c1csc2ccccc12 [Example I-25]	1000 to 5000 nM
1000 to 10000 nM	CCCCCCCCCCCCNC(=O)c1cnc(Nc2ccccc2C)c(NC(=O)c2csc3ccccc23)c1 [Example I-28]	10000 to 36000 nM
500 to 1000 nM	Cc1ccccc1Nc1ncc(C(=O)NCCCCCCCCCNC(=O)c2ccc3c(c2)CN(C2CCC(=O)NC2=O)C3=O)cc1NC(=O)c1csc2ccccc12 (stereo not drawn) [Example I-2]	10000 to 36000 nM
100 to 500 nM	Cc1ccccc1Nc1ncc(C(=O)NCCCCCCCCCC(=O)NCc2ccc3c(c2)CN(C2CCC(=O)NC2=O)C3=O)cc1NC(=O)c1csc2ccccc12 (stereo not drawn) [Example I-3]	10000 to 36000 nM
1000 to 10000 nM	Cc1ccccc1Nc1ncc(C(=O)NCCOCCOCCOCCOCCOCCC(=O)N[C@H](C(=O)N2C[C@H](O)C[C@H]2C(=O)N[C@@H](C)c2ccc(-c3scnc3C)cc2)C(C)(C)C)cc1NC(=O)c1csc2ccccc12 [Example I-11]	10000 to 36000 nM
< 100 nM	Cc1ccccc1Nc1ncc(C(=O)NCC#Cc2ccc3c(c2)CN(C2CCC(=O)NC2=O)C3=O)cc1NC(=O)c1csc2ccccc12 (stereo not drawn) [Example I-53]	< 1000 nM
1000 to 10000 nM	Cc1ccccc1Nc1ncc(C(=O)NCCCC[C@H](N)C(=O)N[C@H](C(=O)N2C[C@H](O)C[C@H]2C(=O)NCc2ccc(-c3scnc3C)cc2)C(C)(C)C)cc1NC(=O)c1csc2ccccc12 [Example I-74]	–
1000 to 10000 nM	Cc1ccccc1Nc1ncc(C(=O)NCCOCCOCCOCCOCCOCCOCCC(=O)N[C@H](C(=O)N2C[C@H](O)C[C@H]2C(=O)N[C@@H](C)c2ccc(-c3scnc3C)cc2)C(C)(C)C)cc1NC(=O)c1csc2ccccc12 [Example I-33]	–
1000 to 10000 nM	Cc1cc([C@H](C)Nc2ccccc2C(=O)O)c2oc(N3CCN(C(=O)CCOCCNc4cccc5c4C(=O)N(C4CCC(=O)NC4=O)C5=O)CC3)cc(=O)c2c1 (stereo partly drawn) [Example I-148]	–
500 to 1000 nM	Cc1ncsc1-c1ccc([C@H](C)NC(=O)[C@@H]2C[C@@H](O)CN2C(=O)[C@@H](NC(=O)CCCCCCCCCNC(=O)c2cc(NC(=O)c3cc(F)cc(C(F)(F)F)c3)c3c(c2)C(=O)N[C@H]3c2cc(F)ccc2Cl)C(C)(C)C)cc1 [Example I-88]	–
< 100 nM	O=C1CCC(N2Cc3cc(C(=O)NCCCCCCCCCNC(=O)c4cc(NC(=O)c5nsc6ccccc56)c5n4CC(=O)N[C@@H]5c4cc(F)ccc4Cl)ccc3C2=O)C(=O)N1 (stereo partly drawn) [Example I-106]	–
< 100 nM	O=C1CCC(N2Cc3cc(C#CCNC(=O)c4cnc(Nc5cc(F)ccc5Cl)c(NC(=O)c5csc6ccccc56)c4)ccc3C2=O)C(=O)N1 (stereo not drawn) [Example I-95]	–
1000 to 10000 nM	Cc1cc([C@H](C)Nc2ccccc2)c2oc(N3CCN(C(=O)CCOCCOCCNC(=O)c4cnc(Nc5ccccc5C)c(NC(=O)c5csc6ccccc56)c4)CC3)cc(=O)c2c1 [Example I-112]	–
100 to 500 nM	Cc1ccccc1Nc1ncc(C(=O)NCCCCCC(=O)N[C@H](C(=O)N2C[C@H](O)C[C@H]2C(=O)NCc2ccc(-c3scnc3C)cc2)C(C)(C)C)cc1NC(=O)c1csc2ccccc12 [Example I-38]	–
100 to 500 nM	O=C1CCC(N2C(=O)c3ccc(NCCCCCCCNC(=O)c4cnc(Nc5cc(F)ccc5Cl)c(NC(=O)c5csc6ccccc56)c4)cc3C2=O)C(=O)N1 (stereo not drawn) [Example I-69]	–

IC50 [1]	SMILES	IC50 [2]
500 to 1000 nM	Cc1ccccc1Nc1ncc(C(=O)NCCCC(=O)N[C@H](C(=O)N2C[C@H](O)C[C@H]2C(=O)NCc2ccc(-c3scnc3C)cc2)C(C)(C)C)cc1NC(=O)c1csc2ccccc12 [Example I-48]	–
500 to 1000 nM	Cc1cc([C@@H](C)Nc2ccccc2C(=O)O)c2oc(N3CCN(C(=O)CCNc4ccc5c(c4)C(=O)N(C4CCC(=O)NC4=O)C5=O)CC3)cc(=O)c2c1 (stereo partly drawn) [Example I-140]	–
1000 to 10000 nM	Cc1ccccc1Nc1ncc(C(=O)NCCOCCOCCOCCC(=O)N[C@H](C(=O)N2C[C@H](O)C[C@H]2C(=O)NCc2ccc(-c3scnc3C)cc2)C(C)(C)C)cc1NC(=O)c1csc2ccccc12 [Example I-35]	–
1000 to 10000 nM	O=C(O)CCCCCCCCCNC(=O)c1cc(NC(=O)c2cc(F)cc(C(F)(F)F)c2)c2c(c1)C(=O)N[C@H]2c1cc(F)ccc1Cl [Example I-86]	–
< 100 nM	NC(=O)CCCCCCCCCNC(=O)c1cc(NC(=O)c2nsc3ccccc23)c2n1CC(=O)N[C@H]2c1cc(F)ccc1Cl [Example I-104]	–
100 to 500 nM	NC(=O)CCCCCCCCCNC(=O)c1cnc(Nc2cc(F)ccc2Cl)c(NC(=O)c2csc3ccccc23)c1 [Example I-68]	–
< 100 nM	Cc1cc([C@@H](C)Nc2ccccc2)c2oc(N3CCN(C(=O)CCOCCOCCNC(=O)c4cnc(Nc5ccccc5C)c(NC(=O)c5csc6ccccc56)c4)CC3)cc(=O)c2c1 [Example I-111]	–
500 to 1000 nM	O=C1CCC(N2Cc3cc(C(=O)NCCCCCCCCCNC(=O)c4cc(NC(=O)c5cccc(C(F)(F)F)c5)c5c(c4)C(=O)N[C@H]5c4cc(F)ccc4Cl)ccc3C2=O)C(=O)N1 (stereo partly drawn) [Example I-162]	–
500 to 1000 nM	O=C1CCC(N2Cc3cc(C(=O)NCCCCCCCCCNC(=O)c4cnc(Nc5cc(F)ccc5Cl)c(NC(=O)c5csc6ccccc56)c4)ccc3C2=O)C(=O)N1 (stereo not drawn) [Example I-34]	–
1000 to 10000 nM	Cc1cc([C@@H](C)Nc2ccccc2C(=O)O)c2oc(N3CCN(C(=O)CCOCCNc4cccc5c4C(=O)N(C4CCC(=O)NC4=O)C5=O)CC3)cc(=O)c2c1 (stereo partly drawn) [Example I-145]	–
100 to 500 nM	Cc1ccccc1Nc1ncc(C(=O)NCCc2ccc(Nc3ccc4c(c3)C(=O)N(C3CCC(=O)NC3=O)C4=O)cc2)cc1NC(=O)c1csc2ccccc12 (stereo not drawn) [Example I-64]	–
1000 to 10000 nM	Cc1ccccc1Nc1ncc(C(=O)NCCOCCOCCOCCOCCOCCOCCC(=O)N[C@H](C(=O)N2C[C@H](O)C[C@H]2C(=O)NCc2ccc(-c3scnc3C)cc2)C(C)(C)C)cc1NC(=O)c1csc2ccccc12 [Example I-32]	–
< 100 nM	Cc1ncsc1-c1ccc(CNC(=O)[C@@H]2C[C@@H](O)CN2C(=O)[C@@H](NC(=O)CCCCCCCCCNC(=O)c2cc(NC(=O)c3cc(F)cc(C(F)(F)F)c3)c3c(c2)C(=O)N[C@@H]3c2cc(F)ccc2Cl)C(C)(C)C)cc1 [Example I-73]	–
1000 to 10000 nM	O=C1CCC(N2Cc3cc(C(=O)NCCCCCCCCCNC(=O)c4cc(NC(=O)c5cc(F)cc(C(F)(F)F)c5)c5c(c4)C(=O)N[C@@H]5c4cc(F)ccc4Cl)ccc3C2=O)C(=O)N1 (stereo partly drawn) [Example I-70]	–
100 to 500 nM	O=C1CCC(N2C(=O)c3ccc(NCCCCCNC(=O)c4cnc(Nc5cc(F)ccc5Cl)c(NC(=O)c5csc6ccccc56)c4)cc3C2=O)C(=O)N1 (stereo not drawn) [Example I-63]	–
< 100 nM	NC(=O)CCCCCCCCCNC(=O)c1cc(NC(=O)c2nsc3ccccc23)c2n1CC(=O)N[C@@H]2c1cc(F)ccc1Cl [Example I-103]	–
100 to 500 nM	Cc1ncsc1-c1ccc([C@H](C)NC(=O)[C@@H]2C[C@@H](O)CN2C(=O)[C@@H](NC(=O)CCCCCCCCCNC(=O)c2cc(NC(=O)c3nsc4ccccc34)c3n2CC(=O)N[C@H]3c2cc(F)ccc2Cl)C(C)(C)C)cc1 [Example I-113]	–
1000 to 10000 nM	O=C1CCC(N2Cc3cc(C#CCN4CCC(NC(=O)c5cnc(Nc6cc(F)ccc6Cl)c(NC(=O)c6csc7ccccc67)c5)CC4)ccc3C2=O)C(=O)N1 (stereo not drawn) [Example I-84]	–
500 to 1000 nM	Cc1ccccc1Nc1ncc(C(=O)NCCCCC(=O)N[C@H](C(=O)N2C[C@H](O)C[C@H]2C(=O)NCc2ccc(-c3scnc3C)cc2)C(C)(C)C)cc1NC(=O)c1csc2ccccc12 [Example I-43]	–
100 to 500 nM	O=C(CCCCCCCNC(=O)c1cnc(Nc2cc(F)ccc2Cl)c(NC(=O)c2csc3ccccc23)c1)NCc1ccc2c(c1)CN(C1CCC(=O)NC1=O)C2=O (stereo not drawn) [Example I-41]	–
500 to 1000 nM	Cc1cc([C@@H](C)Nc2ccccc2C(=O)O)c2oc(N3CCN(C(=O)CCCCCNc4cccc5c4C(=O)N(C4CCC(=O)NC4=O)C5=O)CC3)cc(=O)c2c1 (stereo partly drawn) [Example I-142]	–
500 to 1000 nM	Cc1ncsc1-c1ccc(CNC(=O)[C@@H]2C[C@@H](O)CN2C(=O)[C@@H](NC(=O)CCCCCCCCCNC(=O)c2cc(NC(=O)c3cc(F)cc(C(F)(F)F)c3)c3c(c2)C(=O)N[C@H]3c2cc(F)ccc2Cl)C(C)(C)C)cc1 [Example I-71]	–
1000 to 10000 nM	Cc1cc([C@H](C)Nc2ccccc2C(=O)O)c2oc(N3CCN(C(=O)CCCCCCCNc4cccc5c4C(=O)N(C4CCC(=O)NC4=O)C5=O)CC3)cc(=O)c2c1 (stereo partly drawn) [Example I-136]	–

— US20260131009A1, “BIFUNCTIONAL PI3K-ALPHA INHIBITORS AND USES THEREOF” (Relay Therapeutics, Inc., priority 2021, published 2026)
